One series deals with T1, Legumain (Homo sapiens, UniProt Q99538).
T1 sequence (Q99538 whole entry): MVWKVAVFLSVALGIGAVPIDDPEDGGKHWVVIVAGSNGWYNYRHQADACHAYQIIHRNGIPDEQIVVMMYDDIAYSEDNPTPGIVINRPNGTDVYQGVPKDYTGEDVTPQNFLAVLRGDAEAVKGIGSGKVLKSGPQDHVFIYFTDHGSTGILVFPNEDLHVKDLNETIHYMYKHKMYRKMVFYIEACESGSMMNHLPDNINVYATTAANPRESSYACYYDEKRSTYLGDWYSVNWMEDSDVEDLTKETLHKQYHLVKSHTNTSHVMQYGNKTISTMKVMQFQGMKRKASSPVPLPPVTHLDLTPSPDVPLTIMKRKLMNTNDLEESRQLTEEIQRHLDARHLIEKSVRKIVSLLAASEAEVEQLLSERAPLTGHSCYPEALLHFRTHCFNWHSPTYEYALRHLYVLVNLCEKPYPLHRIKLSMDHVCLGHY
Kind of series: Inhibition of recombinant human Asparagine endopeptidase preincubated for 5 mins followed by Z-Ala-Ala-Asn-AMC substrate addition measured after 2 hrs by microplate reader.

Another series has as its target T2, Legumain (Homo sapiens) (UniProt Q99538).
T2 sequence (whole entry): T1 sequence (Q99538 whole entry)
Kind of series: Inhibition of recombinant human Asparagine endopeptidase at 10 uM preincubated for 5 mins followed by Z-Ala-Ala-Asn-AMC substrate addition measured after 2 hrs by microplate reader relative to control.

The nature of series [1]: Dissociation constant, pKa of compound. In kind it is physicochemical.
Another series has as its system L929. In words: Cytotoxicity of mouse L929 cells assessed as reduction in cell viability at 5 to 500 nM measured after 24 hrs by MTT assay. It is filed as toxicity, cell-based. The conditions noted are these: l929, 24 h, 0.5 µM, dose 5-500 nM. In general terms: Formazan colour is commonly taken as a measure of viable cells.

A value given as a limit tells only on which side of the number the result lay.

For orientation: IC50 means the concentration that inhibits the measured activity by half. A word on the inhibition: it is the drop in the measured response relative to a control, in per cent. The pKa is the pH at which an ionisable group is half protonated. A higher pKa goes with a weaker acid or stronger base.

Regarding `Nc1ccc(N2CCOCC2)cc1Cl`, on Legumain, the half-inhibitory concentration (IC50) was more than 5000 nM. In addition, the inhibition at Legumain (Homo sapiens) was 47%. Further, the pKa in series [1] turned out to be 4.05.

Regarding `Nc1ccc(N2CCOCC2)cc1N1CCCC1`, the IC50 on Legumain is more than 5000 nM. Besides, the inhibition on Legumain (Homo sapiens) is 42%. The same compound registered a pKa in series [1] of 6.96.

As for `Nc1ccc(N2CCSCC2)cc1N1CCSCC1`, the IC50 on Legumain was found to be 757 nM. The inhibition on Legumain (Homo sapiens) worked out at 81%. Besides, in series [1], the pKa is 10.1.

Regarding `Nc1ccc(N2CCSCC2)cc1Cl`, on Legumain, the IC50 was more than 5000 nM. On Legumain (Homo sapiens), the inhibition was determined as 43%. In series [1], this compound came in with a pKa of 5.61.

With `Nc1ccc(N2CCOCC2)cc1N1CCSCC1`, at Legumain, the IC50 turned out to be 498 nM. Moreover, the inhibition at Legumain (Homo sapiens) came out at 89%. For the same compound, the pKa in series [1] came to 8.54.

For the compound `CCOC(=O)C1CCN(c2cc(N3CCOCC3)ccc2N)CC1`, the IC50 at Legumain is 89 nM. On Legumain (Homo sapiens), the inhibition came to 98%. In addition, the Activity result in the series on L929 is “Non-Toxic”. The compound also gave a pKa in series [1] of 8.8.

On to `Nc1ccc(N2CCOCC2)cc1N1CCC[C@H]1CO`, for which the IC50 on Legumain is more than 5000 nM. Also, the inhibition on Legumain (Homo sapiens) is 48%. Further, the pKa in series [1] was 6.96.

Take `Nc1ccc(N2CCOCC2)cc1N1CCC2(CC1)OCCO2`: at Legumain, the IC50 worked out at 547 nM. Besides, the inhibition on Legumain (Homo sapiens) worked out at 100%. For the same compound, in series [1], the pKa worked out at 8.62.

Turning to `Nc1ccc(N2CCOCC2)cc1N1CCOCC1`, the IC50 at Legumain was 844 nM. Moreover, the inhibition on Legumain (Homo sapiens) was determined as 100%. For the same compound, the Activity entry in the series with L929 is “Non-Toxic”. The pKa in series [1] turned out to be 8.54.

Consider `CCOC(=O)C1CCN(c2ccc(N)c(N3CCC(C(=O)OCC)CC3)c2)CC1`, for which the IC50 at Legumain was 4830 nM. For the same compound, at Legumain (Homo sapiens), the inhibition turned out to be 53%. Also, the Activity entry in the series with L929 was “Non-Toxic”. For the same compound, the pKa in series [1] amounted to 10.6.

The record behind these values is ChEMBL document CHEMBL5143668, “Modular synthesis of 2,4-diaminoanilines as CNS drug-like non-covalent inhibitors of asparagine endopeptidase” (Bioorg Med Chem, 2022).
